This is an account of results in patent US4339454A, “Alkoxymethyl and benzyloxymethyl phenobarbital therapeutic compositions” (priority 1978, dated 1982).

The conditions of series [1]: literature / prior knowledge; cited from earlier work.
For series [2] the following is noted: prior knowledge; cited from earlier work.
The test system of series [3] is maximal electroshock. In words: Anticonvulsant effectiveness against maximal electroshock, mice. The format is in vivo, mice (Charles River strain). The note with it: for Time of peak activity: mice, oral, maximal electroshock. As to the method: (§1) All tests, with the exceptions noted, were conducted on adult albino male mice (Charles River strain); the dosage consisted of the active agent suspended in 10% aqueous acacia and was administered orally unless otherwise indicated.
Anticonvulsant effectiveness of each agent against maximal electroshock was determined at the time of peak effect. The time of peak anticonvulsant activity was determined by administering dosages of various sizes to a group of animals and administering a maximal electroshock to the animals at intervals thereafter by supplying 60 ma. current through a corneal electrode for 0.2 second. […] The time of peak effect thus determined was used for all subsequent tests of anticonvulsant activity on the same active agent.
On the technique in general: The maximal electroshock test induces tonic seizures with an electrical stimulus.

For series [4], the system named is Metrazol. Description: Anticonvulsant effectiveness against convulsive dose of Metrazol, mice. Format: in vivo, mice (Charles River strain). The note with it: oral. As to the method:
as §1
Anticonvulsant effectiveness was determined against a convulsive dose of Metrazol (106.25 mg/kg) injected subcutaneously; the criterior for effectiveness was failure to show clonic convulsive seizures. Anticonvulsant activity was determined against a lethal dose of strychnine sulfate (1.5 mg/kg) injected subcutaneously; the criterion was failure to die, even though seizures appeared.

The test system of series [5] is central nervous system. In words: Hypnotic activity: loss of the righting reflex (onset of sleep). The format is in vivo, mice (Charles River strain). Particulars: any dosage less than a lethal dose for the compounds of the invention. How it is done:
as §1

Turning to `O=C1NC(=O)C(c2ccccc2)(c2ccccc2)N1` [diphenylhydantoin], the “Hypnotic activity, known or reported” value in series [1] is on record as “not hypnotic”. For the same molecule, in series [2], the Undesirable side effects result is “hypertrophic gingivitis, megaloblastic anemia, toxic psychoses, and hirsutism”.
As for `CCC1(c2ccccc2)C(=O)N(COC)C(=O)N(COC)C1=O` [Example 1, 1,3-dimethoxymethyl-5-ethyl-5-phenyl barbituric acid], the “Hypnotic activity, known or reported” value in series [1] is recorded as “without effect”. In series [3] (0.1 millimole/kg), the “Duration of anticonvulsant effect against maximal electroshock (in words)” value is “protection continued at about the same level for more than eight hours” and the “Onset of protection against maximal electroshock (in words)” value was “only after two hours”. In addition, in series [3], the “Time of peak activity” value amounted to 2 h. The “Change in ED50 to protect against maximal electroshock on repeated daily dosage” value in series [3] (repeated daily dosage of same animals for four days) is given as “no significant change”.
Regarding `CCCCCCCCCCCCOCN1C(=O)N(COCCCCCCCCCCCC)C(=O)C(CC)(c2ccccc2)C1=O` [Example 8, 1,3-dilauryloxymethyl-5-ethyl-5-phenyl barbituric acid], in series [3], the “Time of peak activity” value worked out at 2 h.
As for `COCN1C(=O)NC(c2ccccc2)(c2ccccc2)C1=O` [Example 2, 3-methoxymethyl-5,5-diphenylhydantoin], the “Onset of anticonvulsant activity (maximal electroshock) after ingestion” value in series [3] (after ingestion) is reported as “less than 0.5 hour”.
As to `CCCCCCCCCCCCOCN1C(=O)N(COCCCCCCCCCCCC)C(=O)C(CC)(CC)C1=O` [Example 10, 1,3-di-n-dodecyloxymethyl-5,5-diethyl barbituric acid], the “Time of peak activity (in words)” value in series [4] is reported as “about one hour”.
As to `CCC1(c2ccccc2)C(=O)NC(=O)NC1=O` [phenobarbital sodium, reference compound], in series [3] (0.1 millimole/kg), the “Duration of anticonvulsant effect against maximal electroshock (in words)” value was “protection began to decrease after four hours and was nearly gone by eight hours”; the “Onset of protection against maximal electroshock” value is recorded as “less than 0.5 hour”.
As to `CCC1(CC)C(=O)N(COC)C(=O)N(COC)C1=O` [Example 9, 1,3-dimethoxymethyl-5,5-diethylbarbituric acid], the “Time of peak activity” value in series [4] was found to be 1 h.
`CCC1(c2ccccc2)C(=O)NC(=O)NC1=O` [Phenobarbital, phenobarbital]: in series [5], the “Hypnotic activity (loss of the righting reflex)” value is listed as “did exhibit hypnotic activity”. In addition, the “Hypnotic activity, known or reported” value in series [1] is “exhibits hypnotic activity”.
